Here are results for seven molecules from patent publication US6258806A, “Amine derivatives of oxo- and hydroxy- substituted hydrocarbons” (Narhex Limited, priority 1992, dated 2001).

Series [1] has as its system MT2 cells and PBLs. As to the kind of experiment: Toxicity to the cells (viable cells, trypan blue exclusion). The class given is cell-based, human. The following applies: compared to AZT (azidothymidine), in words. An excerpt:
(§1) (c) Cell toxicity control consisting of uninfected cells treated with dilutions of test compound.
(§2) At the conclusion of each experiment, viable cells in these cultures, as determined by tryptan blue exclusion, were compared with the counts obtained in (b), above.

For series [2], the system named is Human Immunodeficiency Virus type 1 (HIV) strain #237228 in MT2 cells. As to the kind of experiment: Anti-HIV-1 antiviral activity in acutely infected MT2 cells (CPE and RT activity). The class given is cell-based. The following applies: for IC100: Human immunodeficiency virus 1, 144 h, acute HIV-1 infection, day 6, concentration at which virus replication is inhibited (CPE negative or ±, >95% inhibition of RT activity); for antiviral index (Al), MT2 cells: only non-toxic concentrations used, 8640 min.
Description: (§3) The antiviral activity of representative compounds of the present invention has been determined at the Antivirals Laboratory, Fairfield Hospital, Fairfield, Victoria, Australia. In this test a stock solution of each compound was made in DMSO, then diluted in culture medium (RF 10) to 2× the final concentration required for test. The final concentration of DMSO was 1% or below. Approximately 250,000 continuous lymphocytes of human origin (MT2 cells) or 750,000 human peripheral blood lymphocytes (PBLs) were exposed to dilutions of each test compound, then immediately infected with Human Immunodeficiency Virus type 1 (HIV) strain #237228 (a clinical isolate obtained from a human source). The infectivity titers were expressed as tissue culture 50% infective dose (TCID50 per ml) with 1 TCID50 corresponding to the amount of supernatant required to infect 50% of the replicate cell cultures. The 250 and 200 TCID50 were used for MT2 and PBL cells respectively. The cell/drug/virus mixture was then incubated at 37° C./CO2 in a 24-well microtitre plate. Fresh amounts of the appropriate dilution of each drug were added to both MT2 and PBL cultures at day 3. At day 6, the extent of HIV-specific cytopathic effects (CPE) associated with each concentration of test compound in each of the cultures was rated according to the following scale:
(§4) 4+: 75-100% of cells showing 3+: good CPE
(§5) 3+: 50-75% of cells showing 2+: moderate CPE
(§6) 2+: 25-50% of cells showing 1+: low CPE
(§7) 1+: 5-25% of cells showing trace: minimal CPE
(§8) +/-: less than 5% CPE Negative: no CPE
(§9) The activity of the compounds at each concentration was also assessed by their ability to inhibit viron-associated reverse transcriptase (RT) activity in the culture supernates. At the time of rating of CPE, supernatant fluids from each well were removed and RT activity measured using a standard assay. CPE ratings of negative, ± (in MT2 cells) or trace (in PBLs), with greater than 95% inhibition of RT activity, was considered to represent IC100 (the concentration of compound at which the virus replication is inhibited). Control cultures included in each test were:
(§10) (a) HIV-infected cells in the absence of test compound.
(§11) (b) Uninfected cells in the absence of tested compound.
as §1, §2

In series [3] the test system is Human Immunodeficiency Virus type 1 (HIV) strain #237228 in human peripheral blood lymphocytes (PBLs). Put plainly: Anti-HIV-1 antiviral activity in acutely infected peripheral blood lymphocytes (CPE and RT activity). The following applies: for IC100: Human immunodeficiency virus 1, 144 h, PBL cells, acute HIV-1 infection, day 6, concentration at which virus replication is inhibited (CPE negative or trace, >95% inhibition of RT activity); for antiviral index (Al), PBL cells: only non-toxic concentrations used, 8640 min. The class given is cell-based, Human Immunodeficiency Virus type 1 (HIV); human cells.
Description: as §3, §4, §5, §6, §7, §8, §9, §10, §11, §1, §2

Series [4] deals with HIV-1 protease (Human immunodeficiency virus type 1 group M subtype B, UniProt P04585). As to the kind of experiment: HIV-1 protease-inhibiting activity. The series is classed as biochemical. The following applies: half-maximal inhibition of HIV-1 protease. An excerpt: The HIV protease-inhibiting activity of representative compounds of the present invention has been tested by known methods (Brinkworth, R. I., et al., Biochem. Biophys. Res. Commun. 176, 241, (1991); McLeod, D. A., et al., Bioorganic & Medicinal Chemistry Letters (1991) 653-658).

As to `CC(C)(C)OC(=O)NN(C[C@H](O)[C@H](Cc1ccccc1)NC(=O)[C@H](CC(N)=O)NC(=O)c1ccc2ccccc2n1)C1CCCCC1` [Compound 17, t-Butyl 3-cyclohexyl-3-[(2S,3S)-2-hydroxy-3-(N-quinaldyl-L-asparaginyl)amino-4-phenylbutyl]carbazate], the “toxicity to the cells compared to AZT” value in series [1] is reported as “lower toxicity to the cells”. Moreover, in series [2], the IC100 was found to be 0.1 µM and the “antiviral index (Al), MT2 cells” value turned out to be 100. Besides, in series [3], the IC100 amounted to 0.1 µM and the “antiviral index (Al), PBL cells” value was found to be 200.
In general, IC50 refers to the point on the concentration scale where inhibition reaches its midpoint. Take `CC(C)N(C[C@H](O)[C@H](Cc1ccccc1)NC(=O)[C@H](CC(N)=O)NC(=O)c1ccc2ccccc2n1)NC(=O)OC(C)(C)C` [Compound 7B, t-Butyl 3-isogrooyl-3-[(2S, 3S)-2-hydroxy-3-(N-quinaldyl-L-asparaginyl)amino-4-phenylbutyl]carbazate]: the “toxicity to the cells compared to AZT” value in series [1] is given as “lower toxicity to the cells”. In series [2], the IC100 came out at 0.1 µM and the “antiviral index (Al), MT2 cells” value came out at 200. Further, in series [4], the half-maximal inhibitory concentration (IC50) was < 3.5 nM. Moreover, in series [3], the IC100 amounted to 0.1 µM and the “antiviral index (Al), PBL cells” value is given as > 200.
`CC(C)[C@H](NC(=O)OCc1ccccn1)C(=O)N[C@@H](Cc1ccccc1)C(O)CN1C2CCC(C2)N1C(=O)OC(C)(C)C` (stereo partly drawn) [Compound 10, 2-t-Butoxycarbonyl-3-[(2RS, 3S)-2-hydroxy-3-[N-(2-pyridyl)-methoxycarbonyl-L-valyl]amino-4-phenylbutyl]-2,3-diaza-bicyclo[2.2.1]-heptane]: in series [2], the IC100 was determined as 25 µM and the “antiviral index (Al), MT2 cells” value is reported as 1. The IC50 in series [4] amounted to 3300 ± 650 nM.
Turning to `CC(C)N(C[C@@H](O)[C@H](Cc1ccccc1)NC(=O)[C@H](CC(N)=O)NC(=O)c1ccc2ccccc2n1)NC(=O)c1ccccc1NC(=O)OCc1ccccn1` [Compound 8, 1-(2-Pyridyl)methoxycarbonylanthranilyl-2-[(2R,3S)-2-hydroxy-3-(N-quinaldoyl-L-asparaginyl)amino4-phenylbutyl]-2-isopropyl-hydrazine], the “toxicity to the cells compared to AZT” value in series [1] is listed as “lower toxicity to the cells”. In series [2], the IC100 turned out to be 0.1 µM and the “antiviral index (Al), MT2 cells” value was > 100. Further, in series [3], the IC100 was 0.1 µM and the “antiviral index (Al), PBL cells” value is reported as > 100.
Regarding `CC(C)N(C[C@@H](O)[C@H](Cc1ccccc1)NC(=O)[C@H](CC(N)=O)NC(=O)c1ccc2ccccc2n1)NC(=O)OC(C)(C)C` [Compound 7A, t-Butyl 3-Isopropyl-3-[(2R,3S)-2-hydroxy-3-(N-quinaldyl-L-asparaginyl)amino-4-phenylbutyl]carbazate], in series [2], the IC100 was determined as 1 µM and the “antiviral index (Al), MT2 cells” value came out at 50. In series [4], the IC50 stood at 7.3 ± 0.7 nM. In series [3], the IC100 was found to be 1 µM and the “antiviral index (Al), PBL cells” value turned out to be 25.
For `CC(C)(C)OC(=O)N1Cc2ccccc2CN1CC(O)[C@H](Cc1ccccc1)NC(=O)[C@H](CC(N)=O)NC(=O)c1ccc2ccccc2n1` (stereo partly drawn) [Compound 11, 2-t-Butoxycarbonyl-3-[(2RS, 3S)-2-hydroxy-3-(N-quinaldyl-L-asparaginyl)amino-4-phenylbutyl]-1,2,3,4-tetrahydrophthalazine], in series [2], the IC100 turned out to be 1 µM and the “antiviral index (Al), MT2 cells” value was > 10. This molecule returned an IC50 in series [4] of 12.5 ± 3.2 nM.
Take `CC(C)(C)OC(=O)N1CC2CCCCC2CN1CC(O)[C@H](Cc1ccccc1)NC(=O)[C@H](CC(N)=O)NC(=O)c1ccc2ccccc2n1` (stereo partly drawn) [Compound 2a, cis-1,6-3-t-Butoxycarbonyl-4-[(2RS,3S)-2-hydroxy-3-(N-quinaldyl-L-asparaginyl)amino-4-phenylbutyl]-3,4daza-bicylo[4.4.0]decane]: in series [2], the IC100 came to 0.1 µM and the “antiviral index (Al), MT2 cells” value is 50. The IC50 in series [4] stood at 5.4 ± 0.54 nM. Besides, in series [3], the IC100 is 0.1 µM and the “antiviral index (Al), PBL cells” value was determined as 100.
